{
  "source": "patent US20040166561A1",
  "about": "“Novel intein and uses thereof” (priority 2001, published 2004)",
  "origin": "cited, not measured here",
  "key": {"[1]": {"tested_on": "RecA intein from Mycobacterium tuberculosis", "conditions": "0.2 mM zinc (6parts/million); in vitro, splicing in trans"}, "[2]": {"target": "T1, naturally split DnaE intein from Synechocystis sp. PCC6803 (Synechocystis sp., UniProt P74750)", "T1 construct": "by the naturally split DnaE intein from Synechocystis sp; PCC6803", "conditions": "0.2 mM zinc (6parts/million); in vitro, splicing in trans"}},
  "data": [
    {"smiles": "[Zn+2]", "note": "[zinc]", "values": [
      {"measurement": "inhibition of protein splicing", "setting": "[1]", "value": 90, "unit": "%"},
      {"measurement": "inhibition of protein splicing", "setting": "[2]", "value": 90, "unit": "%"}
    ]}
  ]
}
